Experimental data published in ChEMBL document CHEMBL5528008, “Design and synthesis of the first PARP-1 and proteasome dual inhibitors to treat breast cancer” (Eur J Med Chem, 2024).

What was measured:
[1] = biological target: 20S proteasome; test: Inhibition of 20S proteasome (unknown origin) using […] as substrate; assay type: protein-complex assay, Homo sapiens
[2] = system: BT-549; test: Cytotoxicity against human BT-549 cells assessed as inhibition of cell growth incubated for 72 hrs by MTT assay; assay type: functional, cell-based; details: BT-549, 72 h
[3] = system: MCF7; test: Cytotoxicity against human MCF7 cells assessed as inhibition of cell growth incubated for 72 hrs by MTT assay; assay type: functional, cell-based; details: MCF7, 72 h
[4] = system: MDA-MB-231; test: Cytotoxicity against human MDA-MB-231 cells assessed as inhibition of cell growth incubated for 72 hrs by MTT assay; assay type: functional, cell-based; details: MDA-MB-231, 72 h
[5] = biological target: Poly [ADP-ribose] polymerase 1 (Homo sapiens, UniProt P09874); test: Inhibition of PARP-1 (unknown origin) using Femto-ECL as substrate preincubated for 2.7 hrs followed by substrate addition by chemiluminescence assay
Sequence of Poly [ADP-ribose] polymerase 1 (P09874 whole entry): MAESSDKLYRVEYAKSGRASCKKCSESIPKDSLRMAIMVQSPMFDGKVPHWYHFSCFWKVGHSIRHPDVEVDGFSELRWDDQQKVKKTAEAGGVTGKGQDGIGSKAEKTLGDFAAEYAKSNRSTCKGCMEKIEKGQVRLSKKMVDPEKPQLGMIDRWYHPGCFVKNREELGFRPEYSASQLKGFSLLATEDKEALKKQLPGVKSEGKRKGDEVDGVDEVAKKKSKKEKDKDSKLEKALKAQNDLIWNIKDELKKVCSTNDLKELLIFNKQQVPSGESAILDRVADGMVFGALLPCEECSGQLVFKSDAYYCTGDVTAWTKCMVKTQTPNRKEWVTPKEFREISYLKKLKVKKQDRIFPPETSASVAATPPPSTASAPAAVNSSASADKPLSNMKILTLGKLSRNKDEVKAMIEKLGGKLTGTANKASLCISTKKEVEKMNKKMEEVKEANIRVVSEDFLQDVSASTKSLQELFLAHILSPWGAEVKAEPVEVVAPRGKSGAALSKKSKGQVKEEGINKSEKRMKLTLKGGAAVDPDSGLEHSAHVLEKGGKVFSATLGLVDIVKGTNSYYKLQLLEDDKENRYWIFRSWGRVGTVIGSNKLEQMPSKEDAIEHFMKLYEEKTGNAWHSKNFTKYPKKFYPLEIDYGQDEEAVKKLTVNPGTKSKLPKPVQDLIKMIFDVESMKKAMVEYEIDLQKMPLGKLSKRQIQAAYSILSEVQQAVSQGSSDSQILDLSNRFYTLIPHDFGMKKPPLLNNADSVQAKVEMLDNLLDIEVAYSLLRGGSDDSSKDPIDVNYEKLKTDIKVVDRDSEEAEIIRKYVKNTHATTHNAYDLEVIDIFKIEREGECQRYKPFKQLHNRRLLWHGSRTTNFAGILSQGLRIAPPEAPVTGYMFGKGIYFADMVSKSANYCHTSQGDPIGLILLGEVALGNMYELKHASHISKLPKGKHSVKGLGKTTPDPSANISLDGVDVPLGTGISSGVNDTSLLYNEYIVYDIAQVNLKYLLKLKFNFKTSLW

Row | IC50 [1] [nM] | IC50 [5] [nM] | Structure (SMILES) | IC50 [2] [nM] | IC50 [3] [nM] | IC50 [4] [nM]
1 | 13.8 | 273 | CC(C)C[C@H](NC(=O)[C@@H](NC(=O)c1cc(Cc2n[nH]c(=O)c3ccccc23)ccc1F)[C@H](C)O)B1O[C@@H]2C[C@@H]3C[C@@H](C3(C)C)[C@]2(C)O1 | 179 | 493 | 178
2 | 386 | 4.1 | CC(C)C[C@H](NC(=O)CNC(=O)c1cc(Cc2n[nH]c(=O)c3ccccc23)ccc1F)B(O)O |  |  | 
3 |  | > 1000 | Cc1c(Cc2ccc(F)c(C(=O)N[C@@H](Cc3ccccc3)C(=O)N[C@@H](CC(C)C)B3O[C@@H]4C[C@@H]5C[C@@H](C5(C)C)[C@]4(C)O3)c2)n[nH]c(=O)c1C |  |  | 
4 | 98.3 | 151 | CC(C)C[C@H](NC(=O)[C@@H](NC(=O)c1cc(Cc2n[nH]c(=O)c3ccccc23)ccc1F)C(C)C)B1O[C@@H]2C[C@@H]3C[C@@H](C3(C)C)[C@]2(C)O1 | 13.3 | 174 | 20.8
5 | 1060 |  | CC(C)C[C@H](NC(=O)[C@H](Cc1c[nH]c2ccccc12)NC(=O)c1cc(Cc2n[nH]c(=O)c3ccccc23)ccc1F)C(=O)[C@@]1(C)CO1 |  |  | 
6 | > 10000 |  | CC(C)C[C@H](NC(=O)CNC(=O)c1cc(Cc2n[nH]c(=O)c3ccccc23)ccc1F)C(=O)[C@@]1(C)CO1 |  |  | 
7 | 1420 |  | CC(C)C[C@H](NC(=O)[C@H](Cc1ccccc1)NC(=O)c1cc(Cc2n[nH]c(=O)c3ccccc23)ccc1F)C(=O)[C@@]1(C)CO1 |  |  | 
8 |  | > 1000 | CC(C)C[C@H](NC(=O)[C@H](Cc1ccccc1)NC(=O)c1cc(COc2ccccc2C(N)=O)ccc1F)B1O[C@@H]2C[C@@H]3C[C@@H](C3(C)C)[C@]2(C)O1 |  |  | 
9 | 2150 | > 1000 | CC(C)C[C@H](NC(=O)CNC(=O)c1cc(Cc2ccc(=O)[nH]n2)ccc1F)B1O[C@@H]2C[C@@H]3C[C@@H](C3(C)C)[C@]2(C)O1 |  |  | 
10 | 24.7 | 98 | CC(C)C[C@H](NC(=O)[C@H](Cc1ccccc1)NC(=O)c1cc(Cc2n[nH]c(=O)c3ccccc23)ccc1F)B1O[C@@H]2C[C@@H]3C[C@@H](C3(C)C)[C@]2(C)O1 | 84.9 | 58.6 | 63.6
11 | 103 | 203 | CCC[C@H](NC(=O)c1cc(Cc2n[nH]c(=O)c3ccccc23)ccc1F)C(=O)N[C@@H](CC(C)C)B1O[C@@H]2C[C@@H]3C[C@@H](C3(C)C)[C@]2(C)O1 | 605 | 87.9 | 338
12 | 21.4 | 247 | COC[C@H](NC(=O)c1cc(Cc2n[nH]c(=O)c3ccccc23)ccc1F)C(=O)N[C@@H](CC(C)C)B1O[C@@H]2C[C@@H]3C[C@@H](C3(C)C)[C@]2(C)O1 | 109 | 40.8 | 101
